Assay results: patent EP4660182A1, “NAV1.7- AND/OR NAV1.8-INHIBITING ARYL PYRIDINE COMPOUNDS, PROCESSES FOR THE PREPARATION THEREOF, COMPOSITIONS, USES, METHODS FOR TREATMENT USING SAME, AND KITS” (Eurofarma Laboratórios S.A., priority 2023, dated 2024)
pIC50: −log10 of the molar value.

Key:
[1] = target: T1, human sodium channels Nav 1.8 (Homo sapiens, UniProt Q9Y5Y9); test: Automated whole-cell voltage-clamp (ScreenPatch 384P) sodium current block, Nav 1.8; format: cell-based; details: CHO cells stably expressing human Nav 1.8; inactivation step -40 mV 8 s, test step 10 mV (TP1A); eight concentrations; exposure at least five minutes; room temperature; read-out: Nav1.8 IC50
T1 construct: expressed in transfected cells
Description: (§1) Biological assays were performed on Chinese hamster ovary (CHO) cells that express human sodium channels Nav 1.8 or Nav 1.7 in a stable manner.
(§2) The experimental protocol voltage-clamp using the whole cell configuration was established on the automated ScreenPatch® 384P platform (SP384PE, Nanion Technologies, Livingston, NJ) and the results were recorded with a Nanion 384-well Patch Clamp chip (NPC) (Nanion Technologies, Livingston, NJ).
(§3) Formula I compounds were diluted in eight concentrations in the extracellular solution composed of saline solution, buffered with HEPES (mM): NaCl, 137; KCl, 4; CaCl2, 3,8; MgCl2, 1; HEPES, 10; Glucose, 10; pH 7.4. The […], 50; CsF, 90; MgCl2, 5; EGTA, 5; HEPES, 10; pH 7.2. The duration of exposure of each compound with cells expressing Nav 1.7 or Nav 1.8 was at least five minutes and the assays were performed at room temperature.
(§4) The measurements of the sodium currents of Nav 1.8 and Nav 1.7 were obtained using the voltage protocol described below.
(§5) A holding voltage of -100 mV was established followed by an inactivation voltage step at -40 mV for 8 seconds, followed by a step of -100 mV for 20 ms, followed by a 20 ms step for 10 mV for Nav 1.8 or 0 mV for Nav 1.7 (TP1A) before returning to the holding voltage of -100 mV.
(§6) The protocol was repeated at a frequency of 0.05 Hz and the amplitude of the current was quantified throughout the recording of the TP1A phase. The variation in the amplitude of the peak current was evaluated according to the formula described below, after exposing the cells expressing the channels to each concentration of the different compounds: % Block = (1−(ITP1A,molecule/ITP1A,basal)×100%, [formula] wherein ITP1A,basal and ITP1A,molecule represent the peaks of sodium current input into TP1A before exposure to the compound and in the presence of the compound, respectively.
(§7) Data were obtained by nonlinear regression (nonlinear least squares) with XLfit for Excel (Microsoft, Redmond, WA).
(§8) The compounds were tested in at least one assay to obtain the value of CI50. For compounds that were tested in two or more assays, the results are described as the means of the CI50 values.

[2] = target: T2, human sodium channels Nav 1.7 (Homo sapiens, UniProt Q15858); test: Automated whole-cell voltage-clamp (ScreenPatch 384P) sodium current block, Nav 1.7; format: cell-based; details: CHO cells stably expressing human Nav 1.7; inactivation step -40 mV 8 s, test step 0 mV (TP1A); eight concentrations; exposure at least five minutes; room temperature; read-out: Nav1.7 IC50
T2 construct: expressed in transfected cells
Description: as §1, §2, §3, §4, §5, §6, §7, §8

T1 sequence (Q9Y5Y9 whole entry): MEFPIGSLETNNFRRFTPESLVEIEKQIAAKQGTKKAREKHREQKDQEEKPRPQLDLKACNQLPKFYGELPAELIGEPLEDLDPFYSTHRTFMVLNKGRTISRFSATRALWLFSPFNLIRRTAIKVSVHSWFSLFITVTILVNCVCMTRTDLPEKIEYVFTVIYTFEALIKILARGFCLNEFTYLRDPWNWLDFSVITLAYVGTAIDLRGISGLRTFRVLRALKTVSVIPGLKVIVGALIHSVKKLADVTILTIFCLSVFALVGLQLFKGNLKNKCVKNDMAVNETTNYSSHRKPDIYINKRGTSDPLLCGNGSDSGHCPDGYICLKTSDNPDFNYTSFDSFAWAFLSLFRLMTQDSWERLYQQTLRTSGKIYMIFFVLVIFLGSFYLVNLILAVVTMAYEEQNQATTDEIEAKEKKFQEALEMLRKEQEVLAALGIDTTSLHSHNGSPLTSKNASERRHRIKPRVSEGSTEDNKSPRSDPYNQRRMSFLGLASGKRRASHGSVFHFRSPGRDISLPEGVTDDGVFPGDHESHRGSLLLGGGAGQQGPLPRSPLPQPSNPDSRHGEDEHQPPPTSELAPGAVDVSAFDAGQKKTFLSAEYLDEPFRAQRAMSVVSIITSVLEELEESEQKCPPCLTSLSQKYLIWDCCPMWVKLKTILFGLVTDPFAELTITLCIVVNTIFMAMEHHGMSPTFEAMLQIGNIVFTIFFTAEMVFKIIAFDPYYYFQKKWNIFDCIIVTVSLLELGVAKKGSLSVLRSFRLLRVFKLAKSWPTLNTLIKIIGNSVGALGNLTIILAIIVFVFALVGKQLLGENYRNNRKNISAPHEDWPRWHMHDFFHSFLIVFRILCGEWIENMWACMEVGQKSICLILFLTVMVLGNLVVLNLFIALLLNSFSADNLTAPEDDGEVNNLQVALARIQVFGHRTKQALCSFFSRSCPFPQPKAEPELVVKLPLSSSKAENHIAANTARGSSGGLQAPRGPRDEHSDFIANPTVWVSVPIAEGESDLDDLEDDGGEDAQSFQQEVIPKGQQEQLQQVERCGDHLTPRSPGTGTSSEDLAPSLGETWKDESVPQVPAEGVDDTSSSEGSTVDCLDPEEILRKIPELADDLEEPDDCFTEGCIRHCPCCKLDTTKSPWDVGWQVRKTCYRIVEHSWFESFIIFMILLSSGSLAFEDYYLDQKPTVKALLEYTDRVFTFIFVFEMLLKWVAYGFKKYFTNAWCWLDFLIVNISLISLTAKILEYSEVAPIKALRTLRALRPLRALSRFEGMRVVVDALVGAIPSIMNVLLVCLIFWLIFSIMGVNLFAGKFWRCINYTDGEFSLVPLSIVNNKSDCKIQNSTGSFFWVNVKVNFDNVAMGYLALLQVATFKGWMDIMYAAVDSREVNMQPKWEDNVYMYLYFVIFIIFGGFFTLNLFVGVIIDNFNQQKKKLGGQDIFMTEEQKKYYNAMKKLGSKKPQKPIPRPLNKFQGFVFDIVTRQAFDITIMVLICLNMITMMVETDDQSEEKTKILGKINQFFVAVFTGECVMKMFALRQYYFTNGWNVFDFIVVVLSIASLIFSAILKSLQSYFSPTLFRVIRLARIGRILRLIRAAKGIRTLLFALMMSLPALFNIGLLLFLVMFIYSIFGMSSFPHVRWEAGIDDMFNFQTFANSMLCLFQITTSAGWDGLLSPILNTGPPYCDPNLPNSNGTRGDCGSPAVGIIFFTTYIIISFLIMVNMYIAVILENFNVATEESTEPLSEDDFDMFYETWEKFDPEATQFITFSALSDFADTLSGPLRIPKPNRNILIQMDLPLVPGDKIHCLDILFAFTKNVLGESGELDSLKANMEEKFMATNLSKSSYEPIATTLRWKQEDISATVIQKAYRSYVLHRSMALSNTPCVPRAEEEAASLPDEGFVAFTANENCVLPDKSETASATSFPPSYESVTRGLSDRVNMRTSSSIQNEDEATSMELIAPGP
T2 sequence (Q15858 whole entry): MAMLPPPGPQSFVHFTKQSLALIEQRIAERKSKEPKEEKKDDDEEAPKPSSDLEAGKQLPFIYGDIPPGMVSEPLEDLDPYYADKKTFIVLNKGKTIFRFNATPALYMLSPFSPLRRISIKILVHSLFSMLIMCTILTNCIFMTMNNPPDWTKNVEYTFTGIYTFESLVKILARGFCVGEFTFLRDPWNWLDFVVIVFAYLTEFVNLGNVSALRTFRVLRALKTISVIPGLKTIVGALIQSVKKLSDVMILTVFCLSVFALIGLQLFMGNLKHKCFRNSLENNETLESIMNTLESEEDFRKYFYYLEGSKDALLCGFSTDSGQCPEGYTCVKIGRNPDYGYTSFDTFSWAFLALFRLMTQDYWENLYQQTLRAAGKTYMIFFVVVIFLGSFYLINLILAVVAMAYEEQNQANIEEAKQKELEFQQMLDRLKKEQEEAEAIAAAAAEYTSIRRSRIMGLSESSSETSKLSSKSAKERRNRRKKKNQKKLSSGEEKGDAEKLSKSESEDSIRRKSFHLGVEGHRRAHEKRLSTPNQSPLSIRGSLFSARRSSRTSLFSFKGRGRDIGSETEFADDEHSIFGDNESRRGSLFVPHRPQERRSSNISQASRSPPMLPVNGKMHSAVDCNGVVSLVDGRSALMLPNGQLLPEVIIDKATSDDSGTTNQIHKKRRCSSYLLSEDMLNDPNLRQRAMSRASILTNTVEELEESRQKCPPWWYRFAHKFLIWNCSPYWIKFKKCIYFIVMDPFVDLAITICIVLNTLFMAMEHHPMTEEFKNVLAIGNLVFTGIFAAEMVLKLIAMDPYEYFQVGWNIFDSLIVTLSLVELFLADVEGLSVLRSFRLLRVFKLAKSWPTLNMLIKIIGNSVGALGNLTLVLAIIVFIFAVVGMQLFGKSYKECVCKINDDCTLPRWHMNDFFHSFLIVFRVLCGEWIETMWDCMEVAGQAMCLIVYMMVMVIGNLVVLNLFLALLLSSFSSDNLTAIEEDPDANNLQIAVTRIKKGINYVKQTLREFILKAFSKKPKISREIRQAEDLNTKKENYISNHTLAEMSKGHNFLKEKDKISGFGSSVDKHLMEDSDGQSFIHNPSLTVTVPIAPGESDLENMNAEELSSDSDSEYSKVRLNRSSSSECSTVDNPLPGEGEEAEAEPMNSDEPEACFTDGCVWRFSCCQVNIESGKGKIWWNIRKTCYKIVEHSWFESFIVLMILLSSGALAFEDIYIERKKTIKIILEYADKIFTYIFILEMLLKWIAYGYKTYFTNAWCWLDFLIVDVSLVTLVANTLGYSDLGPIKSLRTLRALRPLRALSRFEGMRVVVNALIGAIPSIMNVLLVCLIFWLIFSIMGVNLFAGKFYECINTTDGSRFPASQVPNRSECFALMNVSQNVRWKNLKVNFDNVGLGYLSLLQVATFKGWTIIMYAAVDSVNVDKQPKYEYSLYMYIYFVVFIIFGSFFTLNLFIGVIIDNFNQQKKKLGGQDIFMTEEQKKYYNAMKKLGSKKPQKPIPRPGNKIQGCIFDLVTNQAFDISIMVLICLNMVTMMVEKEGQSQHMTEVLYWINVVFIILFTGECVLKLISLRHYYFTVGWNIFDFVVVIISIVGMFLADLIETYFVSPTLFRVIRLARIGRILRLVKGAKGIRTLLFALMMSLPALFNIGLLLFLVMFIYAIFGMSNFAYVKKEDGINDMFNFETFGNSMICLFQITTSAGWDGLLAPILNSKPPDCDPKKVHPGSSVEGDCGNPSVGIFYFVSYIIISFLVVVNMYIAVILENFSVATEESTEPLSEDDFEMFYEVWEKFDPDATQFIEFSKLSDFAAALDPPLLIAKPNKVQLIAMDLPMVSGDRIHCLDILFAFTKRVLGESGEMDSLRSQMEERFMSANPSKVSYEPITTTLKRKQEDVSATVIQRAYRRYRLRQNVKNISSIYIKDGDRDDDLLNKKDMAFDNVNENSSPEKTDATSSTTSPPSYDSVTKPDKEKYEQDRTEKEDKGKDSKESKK

`CCOc1ccc(-c2cncc(C(=O)N/N=C/c3ncoc3C)n2)cn1` [Compound 62, (E)-6-(6-ethoxypyridine-3-yl)-N'-((5-methyloxazole-4-yl)methylene)pyrazine-2-carbohydrazide] gave a pIC50 [1] of 6.00 to 6.30 and a pIC50 [2] of under 6.00.
In the case of `COc1cc(/C=N/NC(=O)c2cncc(-c3ccc(OC(F)(F)F)nc3)n2)c(F)cn1` [Compound 96, (E)-N'-((5-fluoro-2-methoxypyridine-4-yl)methylene)-6-(6-(trifluoromethoxy)pyridine-3-yl)pyrazine-2-carbohydrazide], the pIC50 [1] was over 6.30 and the pIC50 [2] was under 6.00.
`O=C(N/N=C/c1cccc(O)n1)c1cncc(-c2ccc(OC(F)F)nc2)n1` [Compound 115, (E)-6-(6-(difluoromethoxy)pyridine-3-yl)-N'-((6-hydroxypyridine-2-yl)methylene) pyrazine-2-carbohydrazide] showed a pIC50 [1] of under 6.00 and a pIC50 [2] of under 6.00.
`[2H]C([2H])([2H])COc1ccc(-c2cncc(C(=O)N/N=C/c3cc(OC)cnc3F)n2)cn1` [Compound 168, (E)-6-(6-(ethoxy-2,2,2-d3)pyridine-3-yl)-N'-((2-fluoro-5-methoxypyridine-3-yl)methylene)pyrazine-2-carbohydrazide] gave a pIC50 [1] of over 6.30 and a pIC50 [2] of under 6.00.
In the case of `CCOc1ccc(-c2nc(C(=O)N/N=C/c3cccn3C)cnc2O)cn1` [Compound 69, (E)-6-(6-ethoxypyridine-3-yl)-5-hydroxy-N'-((1-methyl-1H-pyrrole-2-yl)methylene)pyrazine-2-carbohydrazide], the pIC50 [1] was under 6.00 and the pIC50 [2] was under 6.00.
`COc1ccnc(/C=N/NC(=O)c2cncc(-c3ccc(OC(F)(F)F)nc3)n2)c1` [Compound 85, (E)-N'-((4-methoxypyridine-2-yl)methylene)-6-(6-(trifluoromethoxy)pyridine-3-yl)pyrazine-2-carbohydrazide] showed a pIC50 [1] of over 6.30 and a pIC50 [2] of under 6.00.
`CCOc1ccc(-c2cncc(C(=O)N/N=C/c3cc(OC)cnc3C)n2)cn1` [Compound 27, (E)-6-(6-ethoxypyridine-3-yl)-N'-((5-methoxy-2-methylpyridine-3-yl)methylene)pyrazine-2-carbohydrazide] showed a pIC50 [1] of over 6.30 and a pIC50 [2] of under 6.00.
In the case of `COc1cnc(C)c(/C=N/NC(=O)c2cncc(-c3ccc(OC(F)F)nc3)n2)c1` [Compound 103, (E)-6-(6-(difluoromethoxy)pyridine-3-yl)-N'-((5-methoxy-2-methylpyridine-3-yl)methylene)pyrazine-2-carbohydrazide], the pIC50 [1] was over 6.30 and the pIC50 [2] was under 6.00.
For `O=C(N/N=C/c1cc(OC2CC2)ccc1F)c1cncc(-c2ccc(OC(F)(F)F)nc2)n1` [Compound 94, (E)-N'-(5-cyclopropoxy-2-fluorobenzylidene)-6-(6-(trifluoromethoxy)pyridine-3-yl)pyrazine-2-carbohydrazide], the pIC50 [1] was over 6.30 and the pIC50 [2] was over 6.30.
Compound `COc1cnc(F)c(/C=N/NC(=O)c2cncc(-c3ccc(OCCC4CNC4)nc3)n2)c1` [Compound 144, (E)-6-(6-(2-(azetidine-3-yl)ethoxy)pyridine-3-yl)-N'-((2-fluoro-5-methoxypyridine-3-yl)methylene)pyrazine-2-carbohydrazide] has a pIC50 [1] of under 6.00 and a pIC50 [2] of under 6.00.
`CCOc1ccc(-c2cncc(C(=O)N/N=C/c3ccc(F)c(OC)c3)n2)cn1` [Compound 2, (E)-6-(6-ethoxypyridine-3-yl)-N'-(4-fluoro-3-methoxybenzylidene)pyrazine-2-carbohydrazide] was tested, and the pIC50 [1] was over 6.30 and the pIC50 [2] was 6.00 to 6.30.
`COc1cc(/C=N/NC(=O)c2cncc(-c3ccc(OC(F)F)nc3)n2)cc(O)n1` [Compound 118, (E)-6-(6-(difluoromethoxy)pyridine-3-yl)-N'-((2-hydroxy-6-methoxypyridine-4-yl)methylene)pyrazine-2-carbohydrazide] showed a pIC50 [1] of under 6.00 and a pIC50 [2] of under 6.00.
With `COc1cc(/C=N/NC(=O)c2cncc(-c3ccc(OC4CC4)nc3)n2)c(F)cc1F` [Compound 78, (E)-6-(6-cyclopropoxypyridine-3-yl)-N'-(2,4-difluoro-5-methoxybenzylidene) pyrazine-2-carbohydrazide] the pIC50 [1] was over 6.30 and the pIC50 [2] was over 6.30.
With `CCOc1ccc(-c2cncc(C(=O)N/N=C/c3cccn3C)n2)cn1` [Compound 50, (E)-6-(6-ethoxypyridine-3-yl)-N'-((1-methyl-1H-pyrrole-2-yl)methylene)pyrazine-2-carbohydrazide] the pIC50 [1] was over 6.30 and the pIC50 [2] was under 6.00.
In the case of `CCOc1ccc(-c2cncc(C(=O)N/N=C/c3cc(C(C)O)ccc3F)n2)cn1` (stereo not shown) [Compound 23, (E)-6-(6-ethoxypyridine-3-yl)-N'-(2-fluoro-5-(1-hydroxyethyl)benzylidene)pyrazine-2-carbohydrazide], the pIC50 [1] was over 6.30 and the pIC50 [2] was under 6.00.
`COc1cnc(F)c(/C=N/NC(=O)c2cncc(-c3ccc(OC(F)F)nc3C)n2)c1` [Compound 159, (E)-6-(6-(difluoromethoxy)-2-methylpyridine-3-yl)-N'-((2-fluoro-5-methoxypyridine-3-yl)methylene)pyrazine-2-carbohydrazide] showed a pIC50 [1] of over 6.30 and a pIC50 [2] of under 6.00.
`[2H]C([2H])([2H])COc1ccc(-c2cncc(C(=O)N/N=C/c3cc(OC([2H])([2H])[2H])cnc3F)n2)cn1` [Compound 173, (E)-6-(6-(ethoxy-2,2,2-d3)pyridine-3-yl)-N'-((2-fluoro-5-(methoxy-d3)pyridine-3-yl)methylene)pyrazine-2-carbohydrazide] showed a pIC50 [1] of over 6.30 and a pIC50 [2] of under 6.00.
Compound `CC(C)Oc1ccc(F)c(/C=N/NC(=O)c2cncc(-c3ccc(OC4CC4)nc3)n2)c1` [Compound 79, (E)-6-(6-cyclopropoxypyridine-3-yl)-N'-(2-fluoro-5-isopropoxybenzylidene) pyrazine-2-carbohydrazide] has a pIC50 [1] of over 6.30 and a pIC50 [2] of over 6.30.
`CCOc1ccc(-c2cncc(C(=O)N/N=C/c3cc(C(C)O)ccn3)n2)cn1` (stereo not shown) [Compound 31, (E)-6-(6-ethoxypyridine-3-yl)-N'-((4-(1-hydroxyethyl)pyridine-2-yl)methylene)pyrazine-2-carbohydrazide] showed a pIC50 [1] of under 6.00 and a pIC50 [2] of under 6.00.
`CCOc1ccc(-c2cncc(C(=O)N/N=C/c3cncc(C(C)O)c3)n2)cn1` (stereo not shown) [Compound 24, (E)-6-(6-ethoxypyridine-3-yl)-N'-((5-(1-hydroxyethyl)pyridine-3-yl)methylene)pyrazine-2-carbohydrazide] showed a pIC50 [1] of under 6.00 and a pIC50 [2] of under 6.00.
`CCOc1ccc(-c2cncc(C(=O)N/N=C/c3cc(OC)cnc3O)n2)cn1` [Compound 42, (E)-6-(6-ethoxypyridine-3-yl)-N'-((2-hydroxy-5-methoxypyridine-3-yl)methylene) pyrazine-2-carbohydrazide] was tested, and the pIC50 [1] was under 6.00 and the pIC50 [2] was under 6.00.
With `CCOc1ccc(-c2cncc(C(=O)N/N=C/c3c[nH]nc3C)n2)cn1` [Compound 57, (E)-6-(6-ethoxypyridine-3-yl)-N'-((3-methyl-1H-pyrazole-4-yl)methylene)pyrazine-2-carbohydrazide] the pIC50 [1] was under 6.00 and the pIC50 [2] was under 6.00.
For `CC(O)c1ccc(F)c(/C=N/NC(=O)c2cncc(-c3ccc(OC(F)F)nc3)n2)c1` (stereo not shown) [Compound 110, (E)-6-(6-(difluoromethoxy)pyridine-3-yl)-N'-(2-fluoro-5-(1-hydroxyethyl)benzylidene)pyrazine-2-carbohydrazide], the pIC50 [1] was over 6.30 and the pIC50 [2] was under 6.00.
